Where “and” joins values, the source holds several entries; their conditions need not be identical. Identical values can stand only once. Like-named read-outs stand apart in the source and are kept apart here.
Experiments:
[1] = target: Human PDE4D catalytic domain (Homo sapiens (Human), UniProt Q08499); test: Scintillation Proximity Assay (SPA), inhibition of PDE4D catalytic domain activity; assay type: biochemical; details: read-out: PDE4D enzyme activity inhibition rate %
Method: The scintillation Proximity Assay (SPA) method was used to determine the inhibitory effect of compounds on the activity of PDE4D catalytic domain. Human PDE4D catalytic domain protein was obtained by expression and purification in E. coli. […] [^3H]-cAMP, scintillation beads (RPNQO150, Perkin Elmer), and 96-well scintillation microplates (Isoplate-96, Perkin Elmer) were purchased from Perkin Elmer Company.
Finally, 10 μl [^3H]-cAMP (0.005 μCi/μl) was added and incubated for 30 min at 30° C. in a water bath. 50 μl SPA beads was added to quench the reaction, shaked appropriately, and stood for 20 minutes. A microplate scintillation counter was used.

[2] = test system: RAW 264.7 cells; test: Cytotoxicity on RAW 264.7 cells (CCK-8 method); assay type: cell-based, mouse
Method: Mouse RAW 264.7 cells were purchased from American Type Culture Collection (Manassas, VA, USA), and cultivated in DMEM culture medium (Hyclone, South Logan, UT, USA) containing 10% fetal bovine serum (Hyclone, South Logan, UT, USA). Cells were collected and counted before use, and inoculated in a 96-well plate (Corning, NY, USA) at 1×10^5/well. […] 20 μl of CCK-8 solution (Dojindo, Kumamoto, Japan) was added at 30 min before the end of the culture. After the cultivation was ended, the absorbance OD value was measured at 450 nm (reference 650 nm) on amicroplate reader (Molecular Devices, Sunnyvale, CA, USA). The toxicity of the compound on RAW 264.7 cells was calculated by dividing the OD value of the test sample by the OD value of the cell control well, which was labeled as the cell survival rate M %.

[3] = test system: TNF-α secretion in PBMC; test: Inhibition of LPS-stimulated TNF-α secretion in PBMC (ELISA); assay type: cell-based; details: Homo sapiens, PBMC; for inhibition at 10 µM / inhibition at 1 µM: read-out: Inhibition rate %
From the text: According to the difference in cell density in human blood, PBMC (peripheral blood mononuclear cell, PBMC) was directly separated and purified by gradient centrifugation using lymphocyte separation fluid. The cell type was mononuclear cells in blood, mainly including lymphocytes (T/B), monocytes, macrophages, dendritic cells and other minor cell types, of which lymphocytes account for a large part, which can directly in vitro simulate the blood immune environment.
PBMC cells isolated from human blood were implanted into 96-well plates at 2*10^5/ml; compounds in gradients were added, with at least three replicates for each gradient; After the PBMCs were incubated at 37° C., 5% CO2 for 1 hour, LPS was added (the final concentration was 10 ug/ml) to stimulate PBMC to express TNF-α, and incubated for another 18-20 h at 37° C., 5% C02. The 96-well plate was collected. The background control with no stimulant and stimulation control wells were also set, with a total volume of 200 μl. The culture supernatant was collected by centrifugation, and the expression level of TNF-α in the culture supernatant was detected by ELISA.

[4] = test system: tumor necrosis factor-α secretion in RAW 264.7 cells; test: Inhibition of LPS-stimulated tumor necrosis factor-α secretion in RAW 264.7 cells (ELISA); assay type: cell-based, mouse; details: Mus musculus, RAW264.7, 4 h, read-out: Tumor necrosis factor-α inhibition rate/%
Method: After the activation by bacterial lipopolysaccharide (LPS), various inflammatory mediators such as tumor necrosis factor-α will be released; Phosphodiesterase PDE4 is also expressed in macrophages, and the inhibitory activity of the compound on phosphodiesterase PDE4 can be reflected by detecting the secretion of tumor necrosis factor-α.
Under the stimulation of 1 μg/ml LPS (L5886, Sigma, St. Louis, MO, USA), the cells were cultured in a 37° C., 5% CO2 incubator for 4 h. The background control with no stimulant and stimulation control wells were also set, with a total volume of 200 μl. The culture supernatant was collected by centrifugation, and the secretion level of tumor necrosis factor-α in the culture supernatant was detected by enzyme-linked immunosorbent assay. The tumor necrosis factor-α detection kit was purchased from BD Pharmingen (San Diego, CA, USA).

Chain of Human PDE4D catalytic domain (Q08499 386-715): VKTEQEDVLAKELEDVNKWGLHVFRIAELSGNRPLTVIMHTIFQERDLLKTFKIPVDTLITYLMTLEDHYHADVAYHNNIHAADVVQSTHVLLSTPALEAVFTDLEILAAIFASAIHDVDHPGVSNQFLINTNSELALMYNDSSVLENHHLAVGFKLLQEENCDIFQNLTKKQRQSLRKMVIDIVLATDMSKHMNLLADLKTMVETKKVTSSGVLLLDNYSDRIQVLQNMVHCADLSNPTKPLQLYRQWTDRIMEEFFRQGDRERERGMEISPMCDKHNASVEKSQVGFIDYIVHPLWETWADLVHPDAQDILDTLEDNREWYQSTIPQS

## CCOc1cc2c(cc1OC)CCN(S(=O)(=O)c1ccc(F)cc1F)[C@H]2CCc1c[nH]c2ccc(OC)cc12 [(S)-C52, (S)-7-ethoxy-6-methoxy-1-(2-(5-methoxy-1H-indol-3-yl)ethyl)-2-(2,4-difluorophenyl)sulfonyl-1,2,3,4-tetrahydroisoquinoline]
[1]; Compound concentration: 1 μM
  inhibition at 1 µM: 36.8%

## CCOc1cc2c(cc1OC)CCN(C=O)[C@H]2CCc1c[nH]c2ccc(OC(F)F)cc12 [(S)-C77, (S)-7-ethoxy-6-methoxy-1-(2-(5-difluoromethoxy-1H-indol-3-yl)ethyl)-3,4-dihydroisoquinoline-2(1H)-formaldehyde]
[1]; Compound concentration: 1 μM
  inhibition at 1 µM: 93.5%

## CCOc1cc2c(cc1OC)CCN(S(=O)(=O)c1cccc(F)c1)[C@H]2CCc1c[nH]c2ccc(OC)cc12 [(S)-C50, (S)-7-ethoxy-6-methoxy-1-(2-(5-methoxy-1H-indol-3-yl)ethyl)-2-(3-fluorophenyl)sulfonyl-1,2,3,4-tetrahydroisoquinoline]
[1]; Compound concentration: 1 μM
  inhibition at 1 µM: 49.4%

## CCOc1cc2c(cc1OC)CCN(C=O)C2Cc1c[nH]c2ccccc12 (stereo not shown) [Compound C10, 1-((1H-indol-3-yl)methyl)-7-ethoxy-6-methoxy-3,4-dihydroisoquinoline-2(1H)-formaldehyde]
[2]; RAW 264.7, 0.5 μM
  Cell survival rate/%: 119.5%
[2]; RAW 264.7, 5 μM
  Cell survival rate/%: 111.4%
[2]; RAW 264.7, 50 μM
  Cell survival rate/%: 94%

## CCOc1cc2c(cc1OC)CCN(C(=O)CS(C)(=O)=O)[C@H]2Cc1c[nH]c2ccccc12 [(S)-C15, (S)-1-(1-((1H-indol-3-yl)methyl)-7-ethoxy-6-methoxy-3,4-dihydroisoquinoline-2(1H)-yl)-2-(methanesulfonyl)ethane-1-one]
[3]
  inhibition at 10 µM: -23.9%
[2]; RAW 264.7, 0.5 μM
  Cell survival rate/%: 107.3%
[2]; RAW 264.7, 5 μM
  Cell survival rate/%: 110.5%
[2]; RAW 264.7, 50 μM
  Cell survival rate/%: 101.2%
[4]
  inhibition at 0.5 µM: 18%
  inhibition at 5 µM: -4.5%
  inhibition at 50 µM: -37.7%

## CCOc1cc2c(cc1OC)CCN(S(=O)(=O)CC)[C@H]2CCc1c[nH]c2ccc(OC)cc12 [(S)-C53, (S)-7-ethoxy-6-methoxy-1-(2-(5-methoxy-1H-indol-3-yl)ethyl)-2-ethylsulfonyl-1,2,3,4-tetrahydroisoquinoline]
[1]; Compound concentration: 1 μM
  inhibition at 1 µM: 56.3%

## COc1ccc2[nH]cc(CC[C@H]3c4cc(C(=O)O)c(OC)cc4CCN3C=O)c2c1 [(S)-C68, (S)-2-formyl-6-methoxy-1-(2-(5-methoxy-1H-indol-3-yl)ethyl)-1,2,3,4-tetrahydroisoquinoline-7-carboxylic acid]
[1]; Compound concentration: 1 μM
  inhibition at 1 µM: 83.1%

## COC(=O)c1cc2c(cc1OC)[C@H](CCc1c[nH]c3ccc(OC)cc13)N(C=O)CC2 [(S)-C67, methyl-(S)-2-formyl-7-methoxy-1-(2-(5-methoxy-1H-indol-3-yl)ethyl)-1,2,3,4-tetrahydroisoquinoline-6-carboxylate]
[1]
  inhibition at 1 µM: 85.9%

## CCOc1cc2c(cc1OC)CCN(S(=O)(=O)c1ccc(OC)cc1)[C@H]2CCc1c[nH]c2ccc(OC)cc12 [(S)-C60, (S)-7-ethoxy-6-methoxy-1-(2-(5-methoxy-1H-indol-3-yl)ethyl)-2-(4-methoxyphenyl)sulfonyl-1,2,3,4-tetrahydroisoquinoline]
[1]; Compound concentration: 1 μM
  inhibition at 1 µM: 42%

## COc1cc2c(cc1OC)C(Cc1c[nH]c3ccccc13)N(CCS(C)(=O)=O)CC2 (stereo not shown) [Compound C12, 1-((1H-indol-3-yl)methyl)-6,7-dimethoxy-2-(2-(methylsulfonyl)ethyl)-1,2,3,4-tetrahydroisoquinoline]
[3]
  inhibition at 1 µM: 45.4%
  inhibition at 10 µM: 52.7%
[2]; RAW 264.7, 0.5 μM
  Cell survival rate/%: 93.6%
[2]; RAW 264.7, 5 μM
  Cell survival rate/%: 115.7%
[2]; RAW 264.7, 50 μM
  Cell survival rate/%: 103.8%
[4]
  inhibition at 0.5 µM: -15.1%
  inhibition at 5 µM: -7.9%
  inhibition at 50 µM: 25.5%

## CCOc1cc2c(cc1OC)CCN(CCS(C)(=O)=O)[C@H]2Cc1c[nH]c2ccccc12 [(S)-C14, (S)-1-((1H-indol-3-yl)methyl)-7-ethoxy-6-methoxy-2-(2-(methylsulfonyl)ethyl)-1,2,3,4-tetrahydroisoquinoline]
[3]
  inhibition at 1 µM: 17%
  inhibition at 10 µM: 54.5%
[2]; RAW 264.7, 0.5 μM
  Cell survival rate/%: 128.3%
[2]; RAW 264.7, 5 μM
  Cell survival rate/%: 98.8%
[2]; RAW 264.7, 50 μM
  Cell survival rate/%: 97.3%
[4]
  inhibition at 0.5 µM: 2.4%
  inhibition at 5 µM: -2.2%
  inhibition at 50 µM: 13.6%

## COc1cc2c(cc1OC)[C@H](CCc1csc3ccccc13)N(C=O)CC2 [(S)-C61, (S)-1-(2-(benzo[b]thiothiophen-3-yl)ethyl)-6,7-dimethoxy-3,4-dihydroisoquinoline-2(1H)-formaldehyde]
[1]; Compound concentration: 1 μM
  inhibition at 1 µM: 70.8%

## COc1cc2c(cc1OC)[C@@H](CCc1c[nH]c3ccccc13)N(C=O)CC2 [(R)-A1, (R)-1-(2-(1H-indol-3-yl)ethyl)-6,7-dimethoxy-3,4-dihydroisoquinoline-2(1H)-formaldehyde]
[2]; RAW 264.7, 0.5 μM
  Cell survival rate/%: 102.7% and 135.9%
[2]; RAW 264.7, 5 μM
  Cell survival rate/%: 106.2% and 110.1%
[2]; RAW 264.7, 50 μM
  Cell survival rate/%: 89.3% and 122.5%

## COc1cc2c(cc1OCC1CC1)[C@H](CCc1c[nH]c3ccccc13)N(C=O)CC2 [(S)-A3, (S)-1-(2-(1H-indol-3-yl)ethyl)-7-(cyclopropyl-methoxy)-6-methoxy-3,4-dihydroisoquinoline-2(1H)-formaldehyde]
[3]
  IC50: 2.65 µM
  inhibition at 1 µM: 31.2%
  inhibition at 10 µM: 76.6%
[2]; RAW 264.7, 0.5 μM
  Cell survival rate/%: 110.9%
[2]; RAW 264.7, 5 μM
  Cell survival rate/%: 86.5%
[2]; RAW 264.7, 50 μM
  Cell survival rate/%: 77.3%
[4]
  inhibition at 0.5 µM: -2.9%
  inhibition at 5 µM: -3.5%
  inhibition at 50 µM: 54.6%

## CCOc1cc2c(cc1OC)CCN(C=O)[C@H]2Cc1c[nH]c2ccc(C)cc12 [(S)-C17, (S)-7-ethoxy-6-methoxy-1-((5-methyl-1H-indol-3-yl)methyl)-3,4-dihydroisoquinoline-2(1H)-formaldehyde]
[3]
  inhibition at 10 µM: 18.8%
[2]; RAW 264.7, 0.5 μM
  Cell survival rate/%: 101.7%
[2]; RAW 264.7, 5 μM
  Cell survival rate/%: 87.3%
[2]; RAW 264.7, 50 μM
  Cell survival rate/%: 103.9%
[4]
  inhibition at 0.5 µM: -32.2%
  inhibition at 5 µM: -33.7%
  inhibition at 50 µM: -13.4%

## CCOc1cc2c(cc1OC)CCN(C=O)[C@H]2Cc1c[nH]c2ccccc12 [(S)-C10, (S)-1-((1H-indol-3-yl)methyl)-7-ethoxy-6-methoxy-3,4-dihydroisoquinoline-2(1H)-formaldehyde]
[2]; RAW 264.7, 0.5 μM
  Cell survival rate/%: 89.1%
[2]; RAW 264.7, 5 μM
  Cell survival rate/%: 84.6%
[2]; RAW 264.7, 50 μM
  Cell survival rate/%: 104.1%

## CCOc1cc2c(cc1OC)CCN(C=O)C2CCc1c[nH]c2ccccc12 (stereo not shown) [Compound A4, 1-(2-(1H-indol-3-yl)ethyl)-7-ethoxy-6-methoxy-3,4-dihydroisoquinoline-2(1H)-formaldehyde]
[2]; RAW 264.7, 0.5 μM
  Cell survival rate/%: 100.6%
[2]; RAW 264.7, 5 μM
  Cell survival rate/%: 113.4%
[2]; RAW 264.7, 50 μM
  Cell survival rate/%: 95.3%

## COc1cc2c(cc1OCC1CC1)C(CCc1c[nH]c3ccccc13)N(C=O)CC2 (stereo not shown) [Compound A3, 1-(2-(1H-indol-3-yl)ethyl)-7-(cyclopropyl-methoxy)-6-methoxy-3,4-dihydroisoquinoline-2(1H)-formaldehyde]
[3]
  IC50: 5.69 µM
  inhibition at 1 µM: 0.84%
  inhibition at 10 µM: 65.7%
[2]; RAW 264.7, 0.5 μM
  Cell survival rate/%: 96.9%
[2]; RAW 264.7, 5 μM
  Cell survival rate/%: 108.2%
[2]; RAW 264.7, 50 μM
  Cell survival rate/%: 94%
[4]
  inhibition at 0.5 µM: -0.5%
  inhibition at 5 µM: -15.5%
  inhibition at 50 µM: 27.3%

## CCOc1cc2c(cc1OC)CCN(C(=O)COC)[C@H]2Cc1c[nH]c2ccccc12 [(S)-C16, (S)-1-(1-((1H-indol-3-yl)methyl)-7-ethoxy-6-methoxy-3,4-dihydroisoquinoline-2(1H)-yl)-2-methoxyethane-1-one]
[3]
  inhibition at 10 µM: 1.89%
[2]; RAW 264.7, 0.5 μM
  Cell survival rate/%: 123.2%
[2]; RAW 264.7, 5 μM
  Cell survival rate/%: 133.1%
[2]; RAW 264.7, 50 μM
  Cell survival rate/%: 113.1%
[4]
  inhibition at 0.5 µM: 2.6%
  inhibition at 5 µM: 12.7%
  inhibition at 50 µM: 10.4%

## COc1cc2c(cc1OC)[C@H](Cc1c[nH]c3ccccc13)N(C(=O)CS(C)(=O)=O)CC2 [(S)-C13, (S)-1-(1-((1H-indol-3-yl)methyl)-6,7-dimethoxy-3,4-dihydroisoquinoline-2(1H)-yl)-2-(methanesulfonyl)ethane-1-one]
[3]
  inhibition at 10 µM: 29.9%
[2]; RAW 264.7, 0.5 μM
  Cell survival rate/%: 111.2%
[2]; RAW 264.7, 5 μM
  Cell survival rate/%: 91.4%
[2]; RAW 264.7, 50 μM
  Cell survival rate/%: 101.7%
[4]
  inhibition at 0.5 µM: -3%
  inhibition at 5 µM: -13.7%
  inhibition at 50 µM: -37.3%

## COc1cc2c(cc1OCC1CC1)[C@H](CCc1c[nH]c3cc(C)ccc13)N(C=O)CC2 [(S)-C4, (S)-7-(cyclopropylmethoxy)-6-methoxy-1-(2-(6-methyl-1H-indol-3-yl)ethyl)-3,4-dihydroisoquinoline-2(1H)-formaldehyde]
[3]
  IC50: 2.12 µM
  inhibition at 1 µM: 32%
  inhibition at 10 µM: 76.9%
[2]; RAW 264.7, 0.5 μM
  Cell survival rate/%: 97.6%
[2]; RAW 264.7, 5 μM
  Cell survival rate/%: 71.8%
[2]; RAW 264.7, 50 μM
  Cell survival rate/%: 77.3%
[4]
  inhibition at 0.5 µM: -30.1%
  inhibition at 5 µM: -25.6%
  inhibition at 50 µM: 54.5%

## COCC(=O)N1CCc2cc(OC)c(OC)cc2C1Cc1c[nH]c2ccccc12 (stereo not shown) [Compound C11, 1-(1-((1H-indol-3-yl)methyl)-6,7-dimethoxy-3,4-dihydroisoquinoline-2(1H)-yl)-2-methoxyethane-1-one]
[3]
  inhibition at 1 µM: 39.9%
  inhibition at 10 µM: 50%
[2]; RAW 264.7, 0.5 μM
  Cell survival rate/%: 97.9%
[2]; RAW 264.7, 5 μM
  Cell survival rate/%: 91.2%
[2]; RAW 264.7, 50 μM
  Cell survival rate/%: 87.3%
[4]
  inhibition at 0.5 µM: -12.7%
  inhibition at 5 µM: -11.9%
  inhibition at 50 µM: 20.1%

## CCOc1cc2c(cc1OC)CCN(C=O)[C@H]2Cc1c[nH]c2ccc(OC)cc12 [(S)-C18, (S)-7-ethoxy-6-methoxy-1-((5-methoxy-1H-indol-3-yl)methyl)-3,4-dihydroisoquinoline-2(1H)-formaldehyde]
[3]
  inhibition at 10 µM: 39.4%
[2]; RAW 264.7, 0.5 μM
  Cell survival rate/%: 118%
[2]; RAW 264.7, 5 μM
  Cell survival rate/%: 111.5%
[2]; RAW 264.7, 50 μM
  Cell survival rate/%: 112.9%
[4]
  inhibition at 0.5 µM: 15.8%
  inhibition at 5 µM: 14.5%
  inhibition at 50 µM: 38.8%

## CCOc1cc2c(cc1OC)CCN(C=O)[C@H]2CCc1c[nH]c2ccccc12 [(S)-A4, (S)-1-(2-(1H-indol-3-yl)ethyl)-7-ethoxy-6-methoxy-3,4-dihydroisoquinoline-2(1H)-formaldehyde]
[2]; RAW 264.7, 0.5 μM
  Cell survival rate/%: 103%
[2]; RAW 264.7, 5 μM
  Cell survival rate/%: 100.8%
[2]; RAW 264.7, 50 μM
  Cell survival rate/%: 98.1%
